Assay in all cases: NCI tumour cell line growth inhibition, 48 h
Assay [1] relates to A498 renal.
The subject of assay [2] is CAKI-1 renal.
In assay [3] the test system is EKVX NSCLC.
Assay [4] concerns MALME-3M melanoma.
Assay [5] concerns NCI-H226 lung.
Assay [6] deals with OVCAR-8 ovarian.
Assay [7] has as its system SW-620 colon.
The test system of assay [8] is UACC-62 melanoma.
The test system of assay [9] is MDA-MB-435.

Our source for the TGI and GI50 values is PubChem BioAssay (NCI).

SMILES strings stand for the structures. Values joined by “and” are separate entries in the source; they are usually repeats but may differ in a detail not shown here. Identical values can stand only once.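 96-well plates; 48 h exposure; 5 concentrations. Endpoints by linear interpolation between flanking doses. Not reached: highest tested concentration assigned. GI50 is the concentration that inhibits growth by half. The concentration for full growth arrest is given as TGI.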

Consider `O=C(N/C(=C\c1ccc(/C=C(\NC(=O)c2ccccc2)c2nc3ccccc3s2)cc1)c1nc2ccccc2s1)c1ccccc1`, for which the TGI in assay [1] stood at 32.5 µM; in [2] it was 28 µM; in [3] it was 14.5 µM; in assay [4], 25.2 µM; in [5] it was 34.3 µM; in assay [6], 5.51 µM. Moreover, the TGI in assay [7] was found to be 14.8 µM; in assay [8], 12 µM.
Take `CC1[C@@H]2CC=C3[C@H]4CCC5Cc6nc7c(nc6C[C@@]5(C)C4(O)CC(=O)[C@]32CO[C@]12OC(C)(C)CC2O)CC1CC[C@@H]2C3=C[C@H]4O[C@@]5(O[C@@](C)(CO)C[C@@H]5O)C(C)[C@@]4(O)[C@]3(C)[C@@H](O)CC2[C@]1(C)C7` (some centres undefined): the GI50 in assay [1] is 0.000396 µM; in assay [2], 0.000573 µM and 0.00463 µM; in assay [3], 0.00615 µM and 0.00996 µM; in assay [4], 0.00298 µM and 0.00369 µM; in assay [6], 0.198 µM; in [7], 0.000172 µM and 0.00119 µM. Moreover, the GI50 in assay [8] was 0.000142 µM and 0.000422 µM. Moreover, the TGI in [1] was 0.00425 µM and 0.00493 µM; in assay [2], 0.365 µM and > 3.6 µM; in [3], 0.152 µM and 0.814 µM; in assay [4] it was 0.142 µM and 0.0292 µM.
As for `Cn1c(=O)c(C(=O)NC(=O)NCCCCCOC(=O)CCCCCCCCCCC(=O)OCCCCCNC(=O)NC(=O)c2cn(Cc3ccccc3)c(=O)n(C)c2=O)cn(Cc2ccccc2)c1=O`, the TGI in assay [1], in assay [2], in assay [3], in [4], in assay [5] and in [6] was greater than 100 µM each time. Moreover, the TGI in assay [7] and in [8] was greater than 100 µM each time.
Regarding `CC1(C(=O)O)CCOc2ccccc21` (centres undefined), the TGI in [1], in [2], in [3], in assay [4], in [5] and in assay [6] was greater than 100 µM each time. Also, the TGI in assay [7] and in assay [8] was greater than 100 µM each time.
`O=C(Nc1nc2ccc([N+](=O)[O-])cc2s1)C(=O)C(C(=O)c1ccncc1)C1OC(=O)c2ccccc21` (centres undefined): the TGI in assay [1], in assay [2], in assay [3], in [4], in assay [5] and in assay [6] was greater than 100 µM each time. In addition, the TGI in assay [7] and in assay [8] was greater than 100 µM in each case.
On to `CCn1c(=O)c2ccccc2n2c(=O)c3cc4ccccc4cc3nc12`, for which the TGI in assay [1], in assay [2], in assay [3], in assay [4], in assay [5] and in [6] was greater than 100 µM throughout. In addition, the TGI in [7] and in assay [8] was greater than 100 µM each time.
As for `CN(CC(=O)O)Cc1oc(CO)cc(=O)c1O`, the TGI in assay [1], in assay [2], in assay [3], in assay [4], in assay [9] and in assay [5] was greater than 100 µM in each case. Also, the TGI in assay [6], in assay [7] and in assay [8] was greater than 100 µM in each case.
Turning to `NCc1c(C(N)=O)ncn1Cc1ccccc1`, the TGI in assay [1], in assay [2], in assay [3], in assay [6], in [7] and in assay [8] was greater than 100 µM in each case.
For the compound `Cc1cc(N(CCCNc2ccnc3cc(Cl)ccc23)Cc2ccc3c(c2)OCO3)nc(N2CCCCC2)n1`, the GI50 is 2.14 µM in assay [1]; 2.56 µM in assay [3]; 1.97 µM in assay [4]; 1.72 µM in [9]; 4.03 µM in assay [5]; 2.1 µM in assay [6]. Also, the GI50 in assay [8] was 1.91 µM. The TGI was found to be 5.11 µM in [1]; 38 µM in [3]; 3.75 µM in [4]; 3.27 µM in [9]; 20.5 µM in assay [5]; 4.95 µM in assay [6]. The compound also showed a TGI in assay [8] of 3.64 µM.
On to `Cc1c(-c2nnc(-c3ccccc3)o2)c(=O)n(-c2ccccc2)n1C`, for which the TGI in [1], in assay [3], in [4], in assay [5], in assay [6] and in [7] was greater than 100 µM in each case. The same compound had a TGI in assay [8] greater than 100 µM.
`CCOC(=O)N1C(c2ccccc2)C=CC(c2ccccc2)N1C(=O)OCC` (centres undefined): the TGI in assay [1], in assay [2], in assay [3], in assay [4], in assay [6] and in assay [7] was greater than 100 µM each time. Also, the TGI in [8] is greater than 100 µM.
For `O=C1C(=O)N(c2nccs2)C(=O)C(=O)C1c1nc2ccccc2s1`, the TGI in assay [2], in [3], in [4], in assay [5], in assay [6] and in assay [7] was greater than 100 µM in each case. The compound further returned a TGI in assay [8] greater than 100 µM.
`CC(C)CC12CC3CCC(CNC1=O)C32C` (centres undefined): the TGI in [1], in assay [2], in assay [3], in assay [4], in assay [5] and in assay [6] was greater than 100 µM each time. Also, the TGI in assay [7] and in [8] was greater than 100 µM throughout.
Regarding `Cc1ccc(C2=C(c3ccc(C)cc3)C(c3ccc(C)cc3)=C(c3ccc(C)cc3)C2=O)cc1`, the TGI in [1], in [3], in [4], in assay [5], in [6] and in [7] was greater than 100 µM throughout.
On to `O=c1cccccc1[O-].O=c1cccccc1[O-].O=c1cccccc1[O-].[Ce+3]`, for which, in [1], the GI50 is 30.8 µM. The TGI in assay [1] was greater than 100 µM; in assay [2], greater than 100 µM; in assay [3] it was greater than 100 µM; in assay [4], 52.4 µM; in assay [5], greater than 100 µM; in [6] it was 73.6 µM. For the same compound, the results for the TGI in assay [7] and in [8] were greater than 100 µM and 40.4 µM, respectively.
As to `CCCCn1c2ccccc2c2ccc3c(c21)C(=O)C=CC3=O`, the TGI in assay [1], in [2], in [4], in [5], in assay [6] and in assay [7] was greater than 100 µM each time. For the same compound, the TGI in [8] is greater than 100 µM.
`CC1CCCc2c1c1ccc3c(O)cccc3c1oc2=O` (centres undefined): the TGI was greater than 100 µM in assay [2]; 85.9 µM in assay [3]; greater than 100 µM in assay [4]; greater than 100 µM in assay [5]; greater than 100 µM in [6]; greater than 100 µM in assay [7]. In assay [8], the TGI was greater than 100 µM.
Regarding `S=c1sc2cscc2s1`, the TGI in assay [1] is greater than 100 µM; in [2] it was 31.4 µM; in assay [3], 35.5 µM; in assay [4], 30.6 µM; in assay [5], 49.5 µM; in [6], 45.9 µM. The TGI in assay [7] was found to be 41.1 µM; in [8] it was 34 µM.
In the case of `CC(=O)[O-].[Zn].c1ccc(/C(=N\Nc2ccccn2)c2ccccn2)cc1`, the TGI was 9.16 µM in assay [1]; 6.33 µM in assay [2]; 2.84 µM in [3]; 1.58 µM in [4]; 0.962 µM and 5.73 µM in [5]; 2.4 µM in assay [6]. Besides, the TGI is 1.63 µM in assay [7]; 0.67 µM and 1.17 µM in assay [8]. Also, the GI50 in assay [3] is 0.0465 µM; in [5], 0.212 µM; in assay [6], 0.0708 µM; in assay [7] it was 0.0319 µM; in [8], 0.0476 µM.
For `O=C(NC1C2CC3CC(C2)CC1C3)/C(Cl)=C1/Sc2ccccc2NC1=O` (centres undefined), the TGI in assay [1], in [2], in assay [3], in assay [4], in assay [5] and in assay [6] was greater than 100 µM throughout. The TGI in assay [7] and in [8] was greater than 100 µM in each case.
With `OCC(O)C(O)C(O)c1nn(-c2ccccc2)c2nc3cc(Cl)c(Cl)cc3nc12` (centres undefined), the TGI in assay [2] was 56.7 µM; in assay [3] it was greater than 100 µM; in assay [4], 77.7 µM; in assay [5], greater than 100 µM; in [6] it was greater than 100 µM; in assay [7], greater than 100 µM. This compound also showed a TGI in assay [8] greater than 100 µM.
Turning to `C=C1CCCC2[C@](C)(CC3=C(O)C(=O)C=C(OC)C3=O)[C@@H](C)CC[C@]12C` (some centres undefined), the TGI in assay [2] was 27.9 µM; in assay [3], greater than 100 µM; in assay [4], 9.93 µM; in assay [6] it was greater than 100 µM; in [7], 53.3 µM; in [8], 6.63 µM.
`CC(=O)/C=C1\CC(=O)Nc2ccccc2N1`: the TGI in assay [1], in assay [2], in assay [3], in [4], in assay [5] and in assay [6] was greater than 100 µM throughout. For the same compound, the TGI in assay [7] and in assay [8] was greater than 100 µM throughout.
Turning to `CC(=O)OC1CCC2C(=CCC3C2(C)C(=O)CC2(C)C(C4(C)OC(C(C)C)=CC4=O)C(O)CC32C)C1(C)C` (centres undefined), the TGI is greater than 100 µM in assay [1]; greater than 100 µM in assay [2]; greater than 100 µM in assay [3]; 47.4 µM in assay [4]; greater than 100 µM in assay [5]; greater than 100 µM in [6]. The values for the TGI in assay [7] and in assay [8] were greater than 100 µM and 41.7 µM, respectively.
For `O=C(O)c1ccccc1N=Nc1ccc2oc(=O)c(C(=O)Nc3ccccc3)cc2c1`, the TGI in assay [3] was greater than 100 µM; in assay [4], 70.3 µM; in assay [5], greater than 100 µM; in [6], greater than 100 µM; in assay [7], greater than 100 µM; in assay [8], 71.1 µM.
Turning to `CC(C)C(=O)[O-].CC(C)C(=O)[O-].N.N.N.N.[Co+3].[O-][Cl+3]([O-])([O-])[O-]`, the GI50 in [1], in assay [3], in [4], in assay [6], in assay [7] and in assay [8] was greater than 100 µM each time. Also, the TGI in assay [1], in [3], in assay [4], in [6], in assay [7] and in assay [8] was greater than 100 µM in each case.
`CCOC(=O)C(C)(C)Oc1ccc2c(-c3ccc(Cl)cc3)c(-c3ccc(Cl)cc3)c(=O)oc2c1`: the TGI in assay [1], in [3], in assay [4], in assay [5], in assay [6] and in assay [7] was greater than 100 µM in each case. Moreover, the TGI in assay [8] is greater than 100 µM.
On to `CCN(CC)c1ccc(N=C2C=C(Cl)C(=O)c3ncccc32)c(C)c1`, for which the TGI in assay [2] was 12 µM; in [3] it was 36.8 µM; in assay [4], 10.5 µM; in [6], greater than 100 µM; in assay [7] it was 17.3 µM; in [8], 24.7 µM.
As for `CC(NC(=O)C(=O)N/N=C1\C[C@@H](c2ccccc2)Nc2ccccc21)c1ccccc1` (some centres undefined), the TGI in assay [2] is greater than 100 µM; in assay [3], greater than 100 µM; in assay [4] it was 99.6 µM; in [5], greater than 100 µM; in assay [6], greater than 100 µM; in assay [7], greater than 100 µM.
For `CCOC(=O)c1ccc(N2C(=O)Cc3ccccc3C2=O)cc1`, the TGI in assay [3], in assay [4], in assay [5], in assay [6], in assay [7] and in assay [8] was greater than 100 µM throughout.
